According to patent US6737383B1, “Herbicidal oxadiazolidines” (priority 1999, dated 2004):

What was measured:
[1] = system: corn; test: Test B pre/postemergence corn; type: in vivo, Zea mays
In short: (§1)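 Herbicidal effect was estimated by eye on a ten-point control scale after plants spent twelve to sixteen days in a greenhouse following soil or foliar treatment. Foliar sprays targeted plants at one to four leaves; all doses were formulated in a non-phytotoxic solvent with surfactant.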

[2] = system: giant foxtail; test: Test B pre/postemergence giant foxtail; type: in vivo, Setaria faberii
In short: as §1

[3] = system: bedstraw; test: Test B pre/postemergence bedstraw; type: in vivo, Galium aparine; conditions: Postemergence
In short: as §1

[4] = system: rice; test: Test B flood test rice; type: in vivo, Oryza sativa
In short: (§2)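 Plants were grown to the 2-leaf stage before treatment with test chemical, then held in a greenhouse for twelve to sixteen days. Injury was visually rated against untreated controls on a 0–10 scale, where 0 is no effect and 10 is complete control.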

[5] = system: morningglory; test: Test B pre/postemergence morningglory; type: in vivo, Ipomoea hederacea
In short: as §1

[6] = system: wild oat; test: Test B pre/postemergence wild oat; type: in vivo, Avena fatua
In short: as §1

[7] = system: bamyardgrass; test: Test B flood test barnyardgrass; type: in vivo, Echinochloa crus-galli
In short: as §2

[8] = system: rape; test: Test B pre/postemergence rape; type: in vivo, Brassica napus
In short: as §1

[9] = system: blackgrass; test: Test B pre/postemergence blackgrass; type: in vivo, Alopecurus myosuroides
In short: as §1

[10] = system: cocklebur; test: Test B pre/postemergence cocklebur; type: in vivo, Xanthium strumarium
In short: as §1

[11] = system: surinam grass; test: Test B pre/postemergence surinam grass; type: in vivo, Brachiaria decumbens
In short: as §1

[12] = system: crabgrass; test: Test B pre/postemergence crabgrass; type: in vivo, Digitaria sanguinalis
In short: as §1

[13] = system: sugar beet; test: Test B pre/postemergence sugar beet; type: in vivo, Beta vulgaris
In short: as §1

[14] = system: velvetleaf; test: Test B pre/postemergence velvetleaf; type: in vivo, Abutilon theophrasti
In short: as §1

[15] = system: smallflower flatsedge; test: Test B flood test smallflower flatsedge; type: in vivo, Cyperus difformis
In short: as §2

[16] = system: pigweed; test: Test B pre/postemergence pigweed; type: in vivo, Amaranthus retroflexus
In short: as §1

[17] = Postemergence, Rate 250 g/ha, scale 0 to 10
[18] = Postemergence, Rate 500 g/ha, scale of 0 to 10 where 0 is no effect and 10 is complete control
[19] = Preemergence, Rate 62 g/ha, scale 0 to 10 (0 no effect, 10 complete control)
[20] = Preemergence, Rate 125 g/ha, scale of 0 to 10 where 0 is no effect and 10 is complete control
[21] = Preemergence, Rate 250 g/ha, scale 0 to 10, 0 is no effect, 10 is complete control
[22] = Preemergence, Rate 500 g/ha, scale 0 to 10, 0 is no effect, 10 is complete control
[23] = Rate 62 g/ha, Postemergence, scale 0 to 10, 0 no effect, 10 complete control
[24] = Rate 125 g/ha, Postemergence, scale 0 to 10, 0 is no effect, 10 is complete control
[25] = Postemergence block (flood test species), Rate 250 g/ha, scale 0 to 10
[26] = Postemergence section (flood test species), Rate 500 g/ha, scale of 0 to 10 where 0 is no effect and 10 is complete control
[27] = Rate 62 g/ha, Postemergence (flood test), scale 0 to 10, 0 no effect, 10 complete control
[28] = Rate 125 g/ha, Postemergence section (flood test species), scale 0 to 10, 0 is no effect, 10 is complete control

CC(C)N(C(=O)n1oc(=O)n(CCC#N)c1=O)c1ccccc1 [Compound 436]
8: B. signalgrass plant response rating [11, 18]
10: Giant foxtail plant response rating [2, 22] | Morningglory plant response rating [5, 18] | Wild oats plant response rating [6, 22] | Rape plant response rating [8, 22] | B. signalgrass plant response rating [11, 22] | Crabgrass plant response rating [12, 22] | Redroot pigweed plant response rating [16, 22]
9: Corn plant response rating [1, 22] | Giant foxtail plant response rating [2, 18] | Blackgrass plant response rating [9, 18] | Blackgrass plant response rating [9, 22] | Crabgrass plant response rating [12, 18]
7: Velvetleaf plant response rating [14, 22] | Redroot pigweed plant response rating [16, 18]
4: Rape plant response rating [8, 18]
0: Corn plant response rating [1, 17] | Plant response rating, Corn [1, 19] | Plant response rating, Corn [1, 20] | Corn plant response rating [1, 21] | Corn plant response rating [1, 23] | Corn plant response rating [1, 24] | Plant response rating, Giant foxtail [2, 19] | Plant response rating, Giant foxtail [2, 20] | Giant foxtail plant response rating [2, 21] | Giant foxtail plant response rating [2, 23] | Giant foxtail plant response rating [2, 24] | Bedstraw plant response rating ([3]; Rate 250 g/ha, scale 0 to 10) | Bedstraw plant response rating ([3]; Rate 62 g/ha, scale 0 to 10, 0 no effect, 10 complete control) | Bedstraw plant response rating ([3]; Rate 125 g/ha, scale 0 to 10, 0 is no effect, 10 is complete control) | Rice plant response rating [4, 25] | Rice plant response rating [4, 26] | Rice plant response rating [4, 27] | Rice plant response rating [4, 28] | Plant response rating, Morningglory [5, 19] | Plant response rating, Morningglory [5, 20] | Morningglory plant response rating [5, 21] | Morningglory plant response rating [5, 23] | Morningglory plant response rating [5, 24] | Wild oats plant response rating [6, 17] | Plant response rating, Wild oats [6, 19] | Plant response rating, Wild oats [6, 20] | Wild oats plant response rating [6, 21] | Wild oats plant response rating [6, 23] | Wild oats plant response rating [6, 24] | Barnyardgrass plant response rating [7, 25] | Barnyardgrass plant response rating [7, 26] | Barnyardgrass plant response rating [7, 27] | Barnyardgrass plant response rating [7, 28] | Rape plant response rating [8, 17] | Plant response rating, Rape [8, 19] | Plant response rating, Rape [8, 20] | Rape plant response rating [8, 21] | Rape plant response rating [8, 23] | Rape plant response rating [8, 24] | Blackgrass plant response rating [9, 17] | Plant response rating, Blackgrass [9, 19] | Plant response rating, Blackgrass [9, 20] | Blackgrass plant response rating [9, 21] | Blackgrass plant response rating [9, 23] | Blackgrass plant response rating [9, 24] | Cocklebur plant response rating [10, 17] | Cocklebur plant response rating [10, 18] | Plant response rating, Cocklebur [10, 19] | Plant response rating, Cocklebur [10, 20] | Cocklebur plant response rating [10, 21] | Cocklebur plant response rating [10, 22] | Cocklebur plant response rating [10, 23] | Cocklebur plant response rating [10, 24] | B. signalgrass plant response rating ([11]; Postemergence, Rate 250 g/ha, scale 0 to 10, 0 no effect, 10 complete control) | Plant response rating, B. signalgrass [11, 19] | Plant response rating, B. signalgrass [11, 20] | B. signalgrass plant response rating [11, 21] | B. signalgrass plant response rating [11, 23] | B. signalgrass plant response rating [11, 24] | Plant response rating, Crabgrass [12, 19] | Plant response rating, Crabgrass [12, 20] | Crabgrass plant response rating [12, 21] | Crabgrass plant response rating [12, 23] | Crabgrass plant response rating [12, 24] | Sugarbeets plant response rating [13, 17] | Sugarbeets plant response rating [13, 18] | Plant response rating, Sugarbeets [13, 19] | Plant response rating, Sugarbeets [13, 20] | Sugarbeets plant response rating [13, 21] | Sugarbeets plant response rating [13, 23] | Sugarbeets plant response rating [13, 24] | Velvetleaf plant response rating [14, 17] | Plant response rating, Velvetleaf [14, 19] | Plant response rating, Velvetleaf [14, 20] | Velvetleaf plant response rating [14, 21] | Velvetleaf plant response rating [14, 23] | Velvetleaf plant response rating [14, 24] | S. Flatsedge plant response rating [15, 25] | S. Flatsedge plant response rating [15, 26] | S. Flatsedge plant response rating [15, 27] | S. Flatsedge plant response rating [15, 28] | Redroot pigweed plant response rating [16, 17] | Plant response rating, Redroot pigweed [16, 19] | Plant response rating, Redroot pigweed [16, 20] | Redroot pigweed plant response rating [16, 21] | Redroot pigweed plant response rating [16, 23] | Redroot pigweed plant response rating [16, 24]
2: Morningglory plant response rating [5, 17]
3: Wild oats plant response rating [6, 18] | Velvetleaf plant response rating [14, 18]
1: Giant foxtail plant response rating [2, 17] | Morningglory plant response rating [5, 22] | Crabgrass plant response rating [12, 17]
5: Corn plant response rating [1, 18] | Sugarbeets plant response rating [13, 22]
